According to patent US10533010B2, “Substituted indole Mcl-1 inhibitors” (Vanderbilt University, priority 2014, dated 2020):

target: recombinant Mcl-1 (residues 172-327) (Homo sapiens (Human), UniProt Q07820); assay: Fluorescence polarization anisotropy competition assay (FITC-Bak or FITC-Bim BH3 peptide) with Mcl-1; assay type: binding; conditions: Table 2; Ki bins given in nM; FITC-Bak or FITC-Bim peptide competition; Ki converted from IC50; read-out: Ki for Inhibition of Mcl-1
Sequence (Q07820 172-327): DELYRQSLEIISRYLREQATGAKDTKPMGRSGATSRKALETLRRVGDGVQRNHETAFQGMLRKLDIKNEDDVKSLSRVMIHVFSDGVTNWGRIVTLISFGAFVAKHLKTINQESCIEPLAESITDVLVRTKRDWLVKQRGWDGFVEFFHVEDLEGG

Structure (SMILES)	Ki [nM]
Cc1cc(OCCCc2c(C(=O)NCCC(=O)NS(=O)(=O)c3ccc([N+](=O)[O-])cc3)[nH]c3ccccc23)cc(C)c1Cl [I-22, 3-(3-(4-chloro-3,5-dimethylphenoxy)propyl)-N-(3-((4-nitrophenyl)sulfonamido)-3-oxopropyl)-1H-indole-2-carboxamide]	101 to 299
Cc1cc(OCCCc2c(C(=O)Nc3cccc(C(=O)O)c3)[nH]c3c(-c4c(C)nn(C)c4C)cccc23)cc(C)c1Cl [I-196, 3-(3-(3-(4-chloro-3,5-dimethylphenoxy)propyl)-7-(1,3,5-trimethyl-1H-pyrazol-4-yl)-1H-indole-2-carboxamido)benzoic acid]	< 50
Cc1cc(OCCCc2c3n(c4c(-c5c(C)nn(C)c5C)c(Cl)ccc24)C(C)CCNC3=O)cc(C)c1Cl (centres unmarked) [I-116, 8-chloro-1-(3-(4-chloro-3,5-dimethylphenoxy)propyl)-5-methyl-7-(1,3,5-trimethyl-1H-pyrazol-4-yl)-2,3,4,5-tetrahydro-1H-[1,4]diazepino[1,2-a]indol-1-one]	< 50
Cc1cc(OCCCc2c3n(c4c(-c5c(C)nn(C)c5C)c(Cl)ccc24)[C@@H](C)CN(Cc2ccc(C(=O)O)cc2)C3=O)cc(C)c1Cl [I-150, (S)-4-((7-chloro-10-(3-(4-chloro-3,5-dimethylphenoxy)propyl)-4-methyl-1-oxo-6-(1,3,5-trimethyl-1H-pyrazol-4-yl)-3,4-dihydropyrazino[1,2-a]indol-2(1H)-yl)methyl)benzoic acid]	< 50
Cc1cc(OCCCc2c(C(=O)NC[C@H]3CC[C@H](C(=O)O)CC3)[nH]c3c(-c4c(C)nn(C)c4C)c(Cl)ccc23)cc(C)c1Cl [I-324, (1r,4r)-4-((6-chloro-3-(3-(4-chloro-3,5-dimethylphenoxy)propyl)-7-(1,3,5-trimethyl-1H-pyrazol-4-yl)-1H-indole-2-carboxamido)methyl)cyclohexane-1-carboxylic acid]	< 50
Cc1cc(OCCCc2c(C(=O)N[C@H]3CCN(C(=O)C(=O)O)C3)[nH]c3c(-c4c(C)nn(C)c4C)c(Cl)ccc23)cc(C)c1Cl [I-325, (S)-2-(3-(6-chloro-3-(3-(4-chloro-3,5-dimethylphenoxy)propyl)-7-(1,3,5-trimethyl-1H-pyrazol-4-yl)-1H-indole-2-carboxamido)pyrrolidin-1-yl)-2-oxoacetic acid]	< 50
Cc1cc(OCCCc2c(C(=O)NC3CCN(C(=O)CC(=O)O)CC3)[nH]c3c(-c4c(C)nn(C)c4C)cccc23)cc(C)c1Cl [I-318, 3-(4-(3-(3-(4-chloro-3,5-dimethylphenoxy)propyl)-7-(1,3,5-trimethyl-1H-pyrazol-4-yl)-1H-indole-2-carboxamido)piperidin-1-yl)-3-oxopropanoic acid]	< 50
Cc1cc(OCCCc2c(C(=O)NCc3cc(C(=O)O)cc(N4CCc5ccccc5C4)n3)[nH]c3c(-c4c(C)nn(C)c4C)c(Cl)ccc23)cc(C)c1Cl [I-282, 2-((6-chloro-3-(3-(4-chloro-3,5-dimethylphenoxy)propyl)-7-(1,3,5-trimethyl-1H-pyrazol-4-yl)-1H-indole-2-carboxamido)methyl)-6-(3,4-dihydroisoquinolin-2(1H)-yl)isonicotinic acid]	< 50
Cc1cc(OCCCc2c3n(c4c(-c5c(C)nn(C)c5C)c(Cl)ccc24)CCCN(Cc2ccc(C(=O)NS(=O)(=O)c4ccc(OCc5ccccc5)cc4)cc2)C3=O)cc(C)c1Cl [I-309, N-((4-(benzyloxy)phenyl)sulfonyl)-4-((8-chloro-11-(3-(4-chloro-3,5-dimethylphenoxy)propyl)-1-oxo-7-(1,3,5-trimethyl-1H-pyrazol-4-yl)-4,5-dihydro-1H-[1,4]diazepino[1,2-a]indol-2(3H)-yl)methyl)benzamide]	< 50
Cc1cc(OCCCc2c3n(c4c(-c5c(C)nn(C)c5C)c(Cl)ccc24)CCCN(Cc2ccc(C(=O)NS(=O)(=O)c4ccc(OCc5cccnc5)cc4)cc2)C3=O)cc(C)c1Cl [I-310, 4-((8-chloro-11-(3-(4-chloro-3,5-dimethylphenoxy)propyl)-1-oxo-7-(1,3,5-trimethyl-1H-pyrazol-4-yl)-4,5-dihydro-1H-[1,4]diazepino[1,2-a]indol-2(3H)-yl)methyl)-N-((4-(pyridin-3-ylmethoxy)phenyl)sulfonyl)benzamide]	< 50
Cc1cc(OCCCc2c3n(c4c(-c5c(C)nn(C)c5C)c(Cl)ccc24)CCCN(c2cccc(OC(F)(F)F)c2)C3=O)cc(C)c1Cl [I-101, 8-chloro-11-(3-(4-chloro-3,5-dimethylphenoxy)propyl)-2-(3-(trifluoromethoxy)phenyl)-7-(1,3,5-trimethyl-1H-pyrazol-4-yl)-2,3,4,5-tetrahydro-1H-[1,4]diazepino[1,2-a]indol-1-one]	301 to 500
Cc1cc(OCCCc2c3n(c4c(-c5c(C)nn(C)c5C)c(Cl)ccc24)C(C)[C@@H](C)N(Cc2ccc(C(=O)O)cc2)C3=O)cc(C)c1Cl (stereo partly drawn) [I-144, 4-(((3R)-7-chloro-10-(3-(4-chloro-3,5-dimethylphenoxy)propyl)-3,4-dimethyl-1-oxo-6-(1,3,5-trimethyl-1H-pyrazol-4-yl)-3,4-dihydropyrazino[1,2-a]indol-2(1H)-yl)methyl)benzoic acid]	< 50
Cc1cc(OCCCc2c3n(c4c(-c5c(C)nn(C)c5C)c(Cl)ccc24)CCN(c2cc(NC4CCOCC4)cc(C(=O)O)c2)C3=O)cc(C)c1Cl [I-214, 3-(7-chloro-10-(3-(4-chloro-3,5-dimethylphenoxy)propyl)-1-oxo-6-(1,3,5-trimethyl-1H-pyrazol-4-yl)-3,4-dihydropyrazino[1,2-a]indol-2(1H)-yl)-5-((tetrahydro-2H-pyran-4-yl)amino)benzoic acid]	< 50
Cc1cc(OCCCc2c3n(c4c(-c5c(C)nn(C)c5C)c(Cl)ccc24)C(C)[C@@H](C)N(c2ccc(C(=O)O)c4ncccc24)C3=O)cc(C)c1Cl (stereo partly drawn) [I-164, 5-((3R)-7-chloro-10-(3-(4-chloro-3,5-dimethylphenoxy)propyl)-3,4-dimethyl-1-oxo-6-(1,3,5-trimethyl-1H-pyrazol-4-yl)-3,4-dihydropyrazino[1,2-a]indol-2(1H)-yl)quinoline-8-carboxylic acid]	51 to 100

Other lines, results leading:

Ki [nM]	Structure (SMILES)
< 50	Cc1cc(OCCCc2c3n(c4c(-c5c(C)nn(C)c5C)c(Cl)ccc24)CCCN(c2cc(C(=O)O)cc4c2OCCO4)C3=O)cc(C)c1Cl [I-364, 8-(8-chloro-11-(3-(4-chloro-3,5-dimethylphenoxy)propyl)-1-oxo-7-(1,3,5-trimethyl-1H-pyrazol-4-yl)-4,5-dihydro-1H-[1,4]diazepino[1,2-a]indol-2(3H)-yl)-2,3-dihydrobenzo[b][1,4]dioxine-6-carboxylic acid]
< 50	Cc1cc(OCCCc2c3n(c4c(-c5c(C)nn(C)c5C)c(Cl)ccc24)CCCN(c2cc(C(=O)O)cc(N(C)CCN(C)C)c2)C3=O)cc(C)c1Cl [I-211, 3-(8-chloro-11-(3-(4-chloro-3,5-dimethylphenoxy)propyl)-1-oxo-7-(1,3,5-trimethyl-1H-pyrazol-4-yl)-4,5-dihydro-1H-[1,4]diazepino[1,2-a]indol-2(3H)-yl)-5-((2-(dimethylamino)ethyl)(methyl)amino)benzoic acid]
< 50	Cc1cc(OCCCc2c3n(c4c(-c5c(C)nn(C)c5C)c(Cl)ccc24)CCCN(c2cc(C(=O)O)cc4c2ccn4Cc2cccnc2)C3=O)cc(C)c1Cl [I-242, 4-(8-chloro-11-(3-(4-chloro-3,5-dimethylphenoxy)propyl)-1-oxo-7-(1,3,5-trimethyl-1H-pyrazol-4-yl)-4,5-dihydro-1H-[1,4]diazepino[1,2-a]indol-2(3H)-yl)-1-(pyridin-3-ylmethyl)-1H-indole-6-carboxylic acid]
< 50	Cc1cc(OCCCc2c3n(c4c(-c5c(C)nn(C)c5C)c(Cl)ccc24)CCCN(c2cc(C(=O)O)cc(-c4ccncc4)c2)C3=O)cc(C)c1Cl [I-231, 3-(8-chloro-11-(3-(4-chloro-3,5-dimethylphenoxy)propyl)-1-oxo-7-(1,3,5-trimethyl-1H-pyrazol-4-yl)-4,5-dihydro-1H-[1,4]diazepino[1,2-a]indol-2(3H)-yl)-5-(pyridin-4-yl)benzoic acid]
< 50	Cc1cc(OCCCc2c3n(c4c(-c5c(C)nn(C)c5C)c(Cl)ccc24)C[C@@H](C)N(c2cc(C(=O)O)cc4c2ccn4C)C3=O)cc(C)c1Cl [I-159, (R)-4-(7-chloro-10-(3-(4-chloro-3,5-dimethylphenoxy)propyl)-3-methyl-1-oxo-6-(1,3,5-trimethyl-1H-pyrazol-4-yl)-3,4-dihydropyrazino[1,2-a]indol-2(1H)-yl)-1-methyl-1H-indole-6-carboxylic acid]
< 50	Cc1cc(OCCCc2c3n(c4c(-c5c(C)nn(C)c5C)c(Cl)ccc24)C[C@@H](C)N(c2ccc(C(=O)O)c4ncccc24)C3=O)cc(C)c1Cl [I-158, (R)-5-(7-chloro-10-(3-(4-chloro-3,5-dimethylphenoxy)propyl)-3-methyl-1-oxo-6-(1,3,5-trimethyl-1H-pyrazol-4-yl)-3,4-dihydropyrazino[1,2-a]indol-2(1H)-yl)quinoline-8-carboxylic acid]
< 50	Cc1cc(OCCCc2c3n(c4c(-c5c(C)nn(C)c5C)c(Cl)ccc24)CCCN(c2cccc4c2ccn4CC(=O)O)C3=O)cc(C)c1Cl [I-348, 2-(4-(8-chloro-11-(3-(4-chloro-3,5-dimethylphenoxy)propyl)-1-oxo-7-(1,3,5-trimethyl-1H-pyrazol-4-yl)-4,5-dihydro-1H-[1,4]diazepino[1,2-a]indol-2(3H)-yl)-1H-indol-1-yl)acetic acid]
< 50	Cc1cnccc1-c1cc(C(=O)O)cc(N2CCCn3c(c(CCCOc4cc(C)c(Cl)c(C)c4)c4ccc(Cl)c(-c5c(C)nn(C)c5C)c43)C2=O)c1 [I-233, 3-(8-chloro-11-(3-(4-chloro-3,5-dimethylphenoxy)propyl)-1-oxo-7-(1,3,5-trimethyl-1H-pyrazol-4-yl)-4,5-dihydro-1H-[1,4]diazepino[1,2-a]indol-2(3H)-yl)-5-(3-methylpyridin-4-yl)benzoic acid]

same assay, conditions: Table 2; Ki bins given in μM; FITC-Bak or FITC-Bim peptide competition; Ki converted from IC50; read-out: Ki for Inhibition of Mcl-1

Structure (SMILES)	Ki [nM]
COC(=O)[C@H](CC(C)C)NC(=O)CNC(=O)c1[nH]c2c(-c3c(C)nn(C)c3C)cccc2c1CCCOc1cc(C)c(Cl)c(C)c1 [I-289, methyl (3-(3-(4-chloro-3,5-dimethylphenoxy)propyl)-7-(1,3,5-trimethyl-1H-pyrazol-4-yl)-1H-indole-2-carbonyl)glycyl-L-leucinate]	10000 to 50000
